The target of assay [1] is T1, HSV-1 protease (assemblin) (Human herpesvirus 1, UniProt P10210).
T1 construct: encoding residues 1-288 of HSV-1 UL26 open reading frame and 32 heterologous amino acid; 6xHis (N); made in house
The experiment in a line: Enzymatic assay for HSV-1 protease (assemblin) inhibition (FP assay / HPLC assay). The format is biochemical. The procedure: Enzymatic Assay for HSV-1 Protease (Assemblin) Inhibition
Assemblin protease activity was determined using fluorescence polarization (FP). The fluorescent substrate was biotin-gamma-aminobutyrate -[…]-DTAF, based on the HSV-1release cleavage site. […] A change in molecular size of fluorescent substrate molecule, which was increased using avidin as a reaction stop reagent, allowed cleavage to be measured by FP. Potential protease inhibitors were dissolved in DMF and then diluted 5-fold in assay buffer. […] The enzyme was diluted to 21.3 ug/mL in assay buffer (1M NaCitrate, 50 mM NaPhosphate, pH 7.4, 100mM NaCl, 20% glycerol, 2 mM TECP) and 48.5 uL were added to each well. Following a 30 minute incubation at room temperature, 10 uL of 62.5 ug/mL substrate were added. After about 90 minute incubation at room temperature, 50 uL of 2 mg/mL avidin in phosphate buffer (50 mM Naphosphate, 100 mM NaCl, pH 7.4) were added to each well. The plates were read by a fluorescence polarization plate reader. Inhibitor potency was determined by comparison with incubations lacking inhibitor.
Assays were performed with the peptide substrate H-His-Thr-Tyr-Leu-Gln-Ala-Ser-Glu-Lys-Phe-Lys-Met-Trp-Gly-NH2 (Bachem). This substrate is a HSV-1-amide UL26 Open Reading Frame (242-255) and is derived from the release site of HSV-1 protease. HSV-1protease cleaves between alanine and serine. The product […] was quantified on HPLC using fluorescence detection of tryptophan residue. Enzyme was diluted to 4.3 ug/mL in assay buffer (1 M NaCitrate, 50 mM NaPhosphate, pH 7.3, 100 mM NaCl, 20% glycerol, 2 mM TCEP) and 48.5 uL were added to the tubes. Potential protease inhibitors were dissolved in DMF and then diluted 10-fold in assay buffer. 6.5 uL of inhibitor solution were added to each tube. Following a 30-minute incubation at room temperature, 10 uL of substrate in phosphate buffer (50 mM Naphosphate, 100 mM NaCl, pH 7.4) were added to all tubes. The final concentration of the substrate in the reaction mixtures was 10 uM. After a 15-minute incubation at room temperature, assays were quenched using 50 uL of 50% TCA. Inhibitor potency was determined by comparison with incubations lacking inhibitor, which under these conditions gave about 20% cleavage of substrate.
Recombinant HSV-1 Protease
HSV-1 protease was purified from baculovirus expressing a DNA construction encoding residues 1-288 of HSV-1 UL26 open reading frame and 32 heterologous amino acid. The construction also encoded six additional histidine residues at the amino terminus of the protease. These additional histidine residues provided an affinity ligand by which the protein was purified using Ni-NTA agarose gel (Qiagen). The purified protease was stored in stock solution (20 mM HEPES buffer, pH 8.5, containing 20% (v/v) glycerol). This stock was diluted with assay buffer to adequate concentration of enzymatic assay.
A specific substrate was synthesized based on the cleavage specificity of HSV-1 protease at the “release site” of the assembly protein (DiIanni, C. L., et al., J. Biol. Chem. 268, 2048, (1993)). The assembly protein release site has the sequence, HTYLQA*SEKFKMWG. The substrate used was biotin-gamma -aminobutyrate-HTYLQA*SERFRIK-DTAF which was prepared by standard peptide synthetic methods such as that described in Bodansky and Bodansky, “The Practice of Peptide Synthesis” (1984), and was stored as a stock solution at 2.5 mg/mL in DMF. This was diluted to 62.5 ug/mL with phosphate buffer (50 mM Naphosphate, […], pH 7.4) just before use.
The substrate was HSV-1-amide UL 26 Open Reading Frame (242-255), obtained from Bachem (Product No. M-2160).
An assay buffer (1 M NaCitrate, 50 mM NaPhosphate, pH 7.4, 100 mM NaCl, 20% glycerol, 2 mM TCEP) was used to dilute stock solutions of enzyme and inhibitors.

A further assay deals with HSV-1. In words: Antiviral assay: plaque reduction assay, HSV-1 in vero cells. The format is cell-based, HSV-1 (vero cells, African green monkey kidney cell). The following applies: Human alphaherpesvirus 1, Vero, 72 h, read-out: ANTIVIRUS EC50. The source says: These complimentary assays tested the ability of a compound to inhibit the production of new virus and the toxicity of the compound to the host cells. It was important that both assays be performed simultaneously in order to compare the results directly since toxicity may indirectly reduce viral replication.
The antiviral assay was estimated by plaque reduction assay performed by following methods. 1×10^5 of vero cells (African green monkey kidney cell) in 48-well plates were over-night cultured and the medium of this culture was replaced with 200 μl of 2% FBS DMEM containing 2× the desired final cordon of test compounds or no compound as control. The cultures were added 50 μl of 2% FBS DMEM containing with about 50 plaque forming units of HSV-1and next 250 μl of 2% FBS DMEM containing 1% methylcellulose. These infected cultures were incubated at 37° C., 5% CO2 for 3 days until plaques was visible. The cells were fixed and stained simultaneously with 0.025% crystalviolet in 5% formalin solution and plaque were counted. The concentration of test compound which conferred 50% inhibition of plaque formation compared to no compound control was interpolated from the observed data and defined as IC50.
(In general: Plaques are areas of infected cells; plaque reduction assays count them against a control.)

The target in assay [2] is T2, Human leukocyte elastase (HLE) (Homo sapiens, UniProt P08246).
T2 construct: purchased CALBIOCHEM
T2 sequence (P08246 30-267): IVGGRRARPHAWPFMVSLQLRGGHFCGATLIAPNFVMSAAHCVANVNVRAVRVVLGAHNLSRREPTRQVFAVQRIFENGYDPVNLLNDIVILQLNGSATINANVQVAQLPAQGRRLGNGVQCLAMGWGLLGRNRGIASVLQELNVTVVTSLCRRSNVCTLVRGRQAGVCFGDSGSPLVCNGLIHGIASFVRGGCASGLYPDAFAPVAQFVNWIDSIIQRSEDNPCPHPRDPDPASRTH
In words: Human leukocyte elastase assay. The format is biochemical. The settings on record: 50 μM compound; 30 minutes pre-incubation. Here is the method: Human Leukocyte Elastase Assay
Human leukocyte elastase (HLE) (CALBIOCHEM) was dissolved in saline at 1 mg/ml and further diluted 1/10 in assay buffer (0.2 M Tris, pH 8.0) before use.
0.75 μl of test compound in DMF (or DMF alone), 50 μl of assay buffer and 50 μl of enzyme were added to 96 well plate, mixed and pre-incubated for 30 minutes at ambient temperature. Reaction was initiated by addition of 50 μl of 2.5 mM methoxysuccinyl-Ala-Ala-Pro-Val-p-nitroanilide (Sigma; 25 mM in DMSO diluted 1/10 in assay buffer before use). The increase in absorbance at 405 nm was monitored for 3 min. with BIO-RAD model 3550 microplate reader.

Assay [3] concerns the target T3, Bovine pancreas α-chymotripsin (Bos taurus, UniProt P00766).
T3 construct: purchased Sigma type II; host or cells: bovine pancreas
The experiment in a line: Chymotripsin assay. The format is biochemical. The settings on record: 50 μM compound; 30 minutes pre-incubation; read-out: INHIBITION AT 50 μM CHYMOTRYPSIN (%). The procedure:
The chymotripsin assay was modified from the method of Delmar, et al. (Anal. Biochem. 99, 316-320 (1979)). Bovine pancreas α-chymotripsin(type II, Sigma) was dissolved in 0.001 N HCl at 1 mg/ml and further diluted 1/1000 in assay buffer (0.1 M Tris, pH 7.8 containing 0.1 M CaCl2) before use. 0.75 μl of test compound in DMF (or DMF alone), 50 μl of assay buffer and 50 μl of enzyme were added to 96 wells plates, mixed and pre-incubated for 30 minutes at ambient temperature. Reaction was initiated by addition of 50 μl of 0.2 mM N-succinyl-Ala-Ala-Pro-Phe-p-nitroanilide (Sigma; 2 mM in DMSO diluted 1/10 in assay buffer before use). The increase in absorbance at 405 nm was monitored for 3 minutes with BIO-RAD model 3550 microplate-reader.

Setting [4] is: recombinant HSV-1 protease, 30 minute pre-incubation at room temperature, FP or HPLC format not stated, read-out: ENZYME IC50.

Where two headings read alike, the source gives them in different places.

T1 sequence (P10210 1-288): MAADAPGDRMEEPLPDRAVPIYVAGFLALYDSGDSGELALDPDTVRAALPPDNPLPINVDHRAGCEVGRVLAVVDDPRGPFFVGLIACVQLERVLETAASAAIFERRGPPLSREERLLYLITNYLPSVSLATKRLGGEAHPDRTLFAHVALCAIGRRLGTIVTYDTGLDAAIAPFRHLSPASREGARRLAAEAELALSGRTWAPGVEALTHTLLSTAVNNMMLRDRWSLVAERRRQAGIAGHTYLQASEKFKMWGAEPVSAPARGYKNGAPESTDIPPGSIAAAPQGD

With `CCN(CC)c1nc2cccc(C)c2c(=O)o1` [CC1, reference compound], the IC50 (commonly the concentration at which inhibition is half-maximal) in assay [1] (setting [4]) was found to be 20 µM.

With `Cc1cccc2nc(N(C)Cc3ccccc3)oc(=O)c12` [CC2, reference compound], in assay [1] (setting [4]), the IC50 was 3.2 µM. In the assay with HSV-1, the EC50 (in general, the concentration giving half of the maximal effect) turned out to be 7.5 µM. In addition, the inhibition at 50 µM in assay [2] and in assay [3] was 101% in each case.

As for `Cc1cccc2nc(N(C)Cc3ccccn3)oc(=O)c12` [CC3, reference compound], in assay [1] (setting [4]), the IC50 stood at 3.2 µM. For the same compound, in the assay on HSV-1, the EC50 worked out at 48.9 µM. Further, the inhibition at 50 µM in assay [2] and in assay [3] was 100% each time.

As to `Cc1c(Br)ccc2nc(N(C)Cc3ccccc3)oc(=O)c12` [CC4, reference compound], the EC50 in the assay on HSV-1 worked out at 15 µM. Further, the inhibition (usually the change of the read-out against control, counted positive when it falls) at 50 µM was found to be 98% in assay [2] and 102% in assay [3].

In the case of `Cc1cccc2nc(N3CCN(C)CC3)oc(=O)c12` [CC5, reference compound], in assay [1], the IC50 turned out to be 28 µM. The EC50 in the assay with HSV-1 was > 50 µM. Moreover, the figures for the inhibition at 50 µM in assay [2] and in assay [3] were 100% and 98%, respectively.

Take `Cc1cccc2nc(N(C)CCN3CCOCC3)oc(=O)c12` [CC6, reference compound]: the IC50 in assay [1] (setting [4]) was 11.8 µM. Further, the EC50 in the assay with HSV-1 was > 50 µM. Further, the inhibition at 50 µM is 99% in assay [2] and 97% in assay [3].

Take `Cc1c(NC(=O)OC(C)(C)C)ccc2nc(N(C)Cc3ccccc3)oc(=O)c12` [Compound 1, 6-[[(1,1-Dimethylethoxy)carbonyl]amino]-5-methyl-2-[methyl(phenylmethyl)amino]-4H-3,1-benzoxazin-4-one]: the 50% inhibitory concentration (IC50) in assay [1] (setting [4]) is 0.6 µM. Moreover, the EC50 in the assay on HSV-1 was 1.1 µM. In addition, the results for the inhibition at 50 µM in assay [2] and in assay [3] were 32% and 13%, respectively.

In the case of `Cc1c(NC(=O)c2ccccc2)ccc2nc(N(C)Cc3ccccc3)oc(=O)c12` [Compound 2, 6-(benzoylamino)-5-methyl-2-[methyl(phenylmethyl)amino]-4H-3,1-benzoxazin-4-one], the IC50 in assay [1] (setting [4]) was 0.7 µM. Further, the EC50 with HSV-1 is 4.6 µM. Further, the figures for the inhibition at 50 µM in assay [2] and in assay [3] were 26% and 7%, respectively.

Regarding `COc1ccc(CN(C)c2nc3ccc(NC(=O)OC(C)(C)C)c(C)c3c(=O)o2)cc1` [Compound 3, 6-[[(1,1-Dimethylethoxy)carbonyl]amino]-5-methyl-2-[methyl[(4-methoxyphenyl)methyl]amino]4H-3,1-benzoxazin-4-one], the IC50 in assay [1] (setting [4]) was 0.6 µM. Further, in the assay on HSV-1, the EC50 stood at 0.16 µM. The inhibition at 50 µM in assay [2] and in assay [3] was 0% in each case.

Take `Cc1c(NC(=O)OC(C)(C)C)ccc2nc(N(C)Cc3ccc(N(C)C)cc3)oc(=O)c12` [Compound 4, 6-[[(1,1-Dimethylethoxy)carbonyl]amino]-5-methyl-2-[[[4-(dimethylamino)phenyl]methyl]methylamino]-4H-3,1-benzoxazin-4-one]: the IC50 in assay [1] (setting [4]) amounted to 1.3 µM. For the same compound, the EC50 in the assay on HSV-1 came out at 0.05 µM. Further, the inhibition at 50 µM in assay [2] and in assay [3] was 0% throughout.

As for `Cc1c(NC(=O)OC(C)(C)C)ccc2nc(N(C)CCc3c[nH]c4ccccc34)oc(=O)c12` [Compound 5, 6-[[(1-Dimethylethoxy)carbonyl]amino]-5-methyl-2-[methyl[2-(3-indolyl)ethyl]amino]-4H-3,1-benzoxazin-4-one], the IC50 in assay [1] (setting [4]) worked out at 3.5 µM. Also, the EC50 with HSV-1 was determined as 3.2 µM. The inhibition at 50 µM in assay [2] turned out to be 0%; in assay [3], 13.1%.

Regarding `Cc1c(NC(=O)OC(C)(C)C)ccc2nc(N3CCOCC3)oc(=O)c12` [Compound 6, 6-[[(1,1-Dimethylethoxy)carbonyl]amino]-5-methyl-2-(4-morpholyl)-4H-3,1-benzoxazin-4-one], in assay [1] (setting [4]), the IC50 was 3.7 µM. In addition, the concentration giving a half-maximal response (EC50) with HSV-1 was 2.9 µM. Also, the inhibition at 50 µM in assay [2] and in assay [3] was 0% in each case.

Take `C=CCN(C)c1nc2ccc(NC(=O)OC(C)(C)C)c(C)c2c(=O)o1` [Compound 7, 6-[[(1,1-Dimethylethoxy)carbonyl]amino]-5-methyl-2-[allyl(methyl)amino]-4H-3,1-benzoxazin-4-one]: the concentration for half-maximal inhibition (IC50) in assay [1] (setting [4]) is 3.4 µM. In the assay on HSV-1, the EC50 was 4.1 µM. In addition, the inhibition at 50 µM amounted to 0% in assay [2] and 6.9% in assay [3].

In the case of `Cc1c(NC(=O)OC(C)(C)C)ccc2nc(N3CC=CCC3)oc(=O)c12` [Compound 8, 6-[[(1,1-Dimethylethoxy)carbonyl]amino]-5-methyl-2-[1-(1,2,3,6-tetrahydro-pyridyl)]-4H-3,1-benzoxazin-4-one], the 50% inhibitory concentration (IC50) in assay [1] (setting [4]) is 5 µM. In addition, the EC50 in the assay with HSV-1 was found to be 3.3 µM. The inhibition at 50 µM in assay [2] and in assay [3] was 0% in each case.

Source of the values: patent publication US6806269B1, “2-Amino-benzoxazinones for the treatment of herpes simplex virus” (G. D. Searle & Cop, priority 1999, dated 2004).
